Results from patent publication EP2664616A1, “Hydantoin and thiohydantoin derivatives as antiviral drugs” (priority 2012, dated 2013).

Each compound was assayed on HCV replicon Luc Neo ET (assay: HCV replication inhibition assay (replicon assay, luciferase reporter)). Details: Hepatitis C virus; Huh-7 cell lines containing HCV replicon Luc Neo ET; 72 hours with compound; 1 % DMSO; firefly luciferase reporter; concentration that produces 50 % of replication inhibition; read-out: EC50 Replicon LucneoET.
Format: cell-based
Method: The compounds according to the present invention were tested for their ability to inhibit HCV replication as follows:
Huh-7 cell lines containing HCV replicon Luc Neo ET (Reblikon) were maintained in DMEM supplemented with 10% SVF, 2 mM glutamine, and 1 X NEAA, 100 U / ml penicillin, and 100 µg / ml streptomycine. Cells were maintained in medium supplemented with 0.5 mg/ml G418, at 37°C and 5% CO2 in a humidified atmosphere. Cells were dissociated at sub confluence with trypsin EDTA 1X.
Replicon Luc Neo ET is bicistronic expression constructs (Lohmann et al, 1999, Science 285, 110-113). In brief, the structural genes of the HCV genome were replaced by heterologous sequences; the gene encoding the neomycin phosphotransferase (NPT) and the internal ribosome entry site (IRES) of the encephalomyocarditis virus (EMCV). The bicistronic construct is therefore composed of the following elements: HCV-IRES nucleotides 1-389 for Luc Neo ET, the NPT gene, the EMCV-IRES directing translation of downstream HCV sequences from NS2 or NS3 up to the authentic 3' end of the genome. HCV Polyprotein of Luc Neo ET replicon harbours the cell culture adaptive mutations E1202G, T1280I, K1846T. G418-resistance is only possible with cells containing high amounts of replicon.
Cells were dissociated the day before addition of compounds and seeded in 96 well-plates at a final concentration of 27 777.77 cells.ml^-1.cm^-2 in 90µl final volume of culture medium per well and were maintained at 37°C and 5% CO2 in a humidified atmosphere for 24 hours. 10 µl of compounds to be tested were added 24 hours after seeding. Final concentration of DMSO was 1 %. Cells were incubated in the presence of compounds for 72 hours after which expression of firefly luciferase reporter gene was quantified. Briefly, culture medium was removed and cells were lysed by addition of 100 µl of lysis buffer containing 125 mM Tris Phosphate ph 7.8, 10 mM EDTA, 5 mM DTT, 50 % glycerol and 5 % Triton. Plates were vortexed 10 min at 1300 rpm. 100µl of luciferin solution 1X were added to each well. Luciferin solution contained 40 mM Tris Phosphate ph 7.8, 0.2 mM EDTA, 67 mM DTT, 2.14 mM MgCl2, 5.4 mM MgSO4, 4.7 x 10^-4 M luciferin, 5.3 x 10^-4 M ATP and 2.7 x 10^-4 M Acetyl co enzyme A. Luminescence was immediately measured with Berthold Microlumat Plus LB 96V luminometer with an integration of 1 sec. Inhibition was calculated using the formula: % inhibition = 1-[(RLUsample-RLUbackground)/(RLUsignal-RLUbackground)].
The Table 1 below illustrates data on the biological activity of compounds of the present invention. Results are expressed as EC50 which is the concentration that produces 50 % of replication inhibition. Table 1. HCV replication inhibition assay
In the case of `Cc1ccc(NC(=O)CC2C(=O)N(c3ccccc3)C(=S)N2CCc2ccc(Cl)cc2)cc1` (stereo not shown) [Example 37, 2-{3-[2-(4-chlorophenyl)ethyl]-5-oxo-1-phenyl-2-sulfanylideneimidazolidin-4-yl}-N-(4-methylphenyl)acetamide], the EC50 is reported as under 5 µM. Work on `O=C(CC1C(=O)N(c2ccccc2)C(=S)N1CCc1ccc(Cl)cc1)Nc1ccc(Cl)c(Cl)c1` (stereo not shown) [Example 38, 2-{3-[2-(4-chlorophenyl)ethyl]-5-oxo-1-phenyl-2-sulfanylideneimidazolidin-4-yl}-N-(3,4-dichlorophenyl)acetamide] yielded an EC50 of under 5 µM. `NC(=O)c1ccc(NC(=O)CC2C(=O)N(c3ccccc3)C(=S)N2CCc2ccc(Cl)cc2)cc1` (stereo not shown) [Example 40, 4-(2-{3-[2-(4-chlorophenyl)ethyl)-5-oxo-1-phenyl-2-sulfanylideneimidazolidin-4-yl}acetamido)benzamide] gave an EC50 of under 5 µM. `O=C(CC1C(=O)N(c2ccc(F)cc2)C(=S)N1CCc1ccc(Cl)cc1)Nc1ccc(N2CCOCC2)cc1` (stereo not shown) [Example 41, 2-{3-[2-(4-chlorophenyl)ethyl]-1-(4-fluorophenyl)-5-oxo-2-sulfanylideneimidazolidin-4-yl}-N-[4-(morpholin-4-yl)phenyl]acetamide] was tested, and the EC50 was under 0.5 µM. For `COc1ccc(CCN2C(=O)N(c3ccc(F)cc3)C(=O)C2CC(=O)Nc2ccc(N(C)C)cc2)cc1` (stereo not shown) [Example 42, N-[4-(dimethylamino)phenyl]-2-[1-(4-fluorophenyl)-3-[2-(4-methoxyphenyl)ethyl]-2,5-dioxoimidazolidin-4-yl]acetamide], the EC50 was under 5 µM. Compound `COCCN(C)c1ccc(NC(=O)CC2C(=O)N(c3ccc(F)cc3)C(=O)N2CCc2ccc(OC)cc2)cc1` (stereo not shown) [Example 43, 2-[1-(4-fluorophenyl)-3-[2-(4-methoxyphenyl)ethyl]-2,5-dioxoimidazolidin-4-yl]-N-{4-[(2-methoxyethyl)(methyl)amino]phenyl}acetamide] has an EC50 of under 5 µM. Work on `COc1ccc(CCN2C(=O)N(c3ccc(F)cc3)C(=O)C2CC(=O)Nc2ccc(N(C)C)c(C)c2)cc1` (stereo not shown) [Example 44, N-[4-(dimethylamino)-3-methylphenyl]-2-[1-(4-fluorophenyl)-3-[2-(4-methoxyphenyl)ethyl]-2,5-dioxoimidazolidin-4-yl]acetamide] yielded an EC50 of under 30 µM. With `CN(C)c1ccc(NC(=O)CC2C(=O)N(c3ccc(F)cc3)C(=O)N2CCc2cccs2)cc1` (stereo not shown) [Example 45, N-[4-(dimethylamino)phenyl]-2-[1-(4-fluorophenyl)-2,5-dioxo-3-[2-(thiophen-2-yl)ethyl]imidazolidin-4-yl]acetamide] the EC50 was under 5 µM. `COc1ccc(NC(=O)CC2C(=O)N(c3ccc(F)cc3)C(=S)N2CCc2cccs2)cc1` (stereo not shown) [Example 46, 2-[1-(4-fluorophenyl)-5-oxo-2-sulfanylidene-3-[2-(thiophen-2-yl)ethyl]imidazolidin-4-yl]-N-(4-methoxyphenyl)acetamide] showed an EC50 of under 0.5 µM. For `COc1ccc(NC(=O)CC2C(=O)N(c3ccc(F)cc3)C(=S)N2CCc2ccc(N(C)C)cc2)cc1` (stereo not shown) [Example 47, 2-(3-{2-[4-(dimethylamino)phenyl]ethyl}-1-(4-fluorophenyl)-5-oxo-2-sulfanylideneimidazolidin-4-yl)-N-(4-methoxyphenyl)acetamide], the EC50 was under 0.5 µM.

Same assay, conditions: Huh-7 cell lines containing HCV replicon Luc Neo ET; 72 hours with compound; 1 % DMSO; firefly luciferase reporter; concentration that produces 50 % of replication inhibition; read-out: EC50 Replicon LucneoET
With “2-{3-[2-(4-chlorophenyl)ethyl]-1-(4-fluorophenyl)-4-hydroxy-5-oxo-2-sulfanylideneimidazolidin-4-yl}-N-[4-(dimethylamino)phenyl]acetamide [Example 65]” the EC50 was under 0.5 µM. With “2-{3-[2-(4-chlorophenyl)ethyl]-1-(4-fluorophenyl)-5-oxo-2-sulfanylideneimidazolidin-4-yl}-N-(5-methoxypyridin-2-yl)acetamide [Example 67]” the EC50 was under 5 µM. In the case of “2-{3-[2-(4-chlorophenyl)ethyl]-4-hydroxy-5-oxo-1-phenyl-2-sulfanylideneimidazolidin-4-yl}-N-[4-(dimethylamino)phenyl]acetamide [Example 63]”, the EC50 is reported as under 0.5 µM. With “2-{3-[2-(4-chlorophenyl)ethyl]-5-oxo-1-phenyl-2-sulfanylideneimidazolidin-4-yl}-N-(pyridin-3-ylmethyl)acetamide [Example 56]” the EC50 was under 5 µM. `CCCOc1ccc(NC(=O)CC2C(=O)N(c3ccccc3)C(=S)N2CCc2ccccc2)cc1` (stereo not shown) [Example 1] showed an EC50 of under 0.5 µM. Work on `CCCOc1ccc(NC(=O)CC2C(=O)N(c3ccccc3)C(=S)N2CCc2ccc(Cl)cc2)cc1` (stereo not shown) [Example 2] yielded an EC50 of under 0.5 µM. `COc1ccc(CCN2C(=S)N(c3ccccc3)C(=O)C2CC(=O)Nc2ccc(OC)cc2)cc1` (stereo not shown) [Example 3] was tested, and the EC50 was under 0.5 µM. For `COc1ccc(NC(=O)CC2C(=O)N(c3ccccc3)C(=S)N2CCc2ccc(OC)c(OC)c2)cc1` (stereo not shown) [Example 4], the EC50 was under 5 µM. `COc1ccc(NC(=O)CC2C(=O)N(c3ccccc3)C(=S)N2CCc2ccc(Cl)cc2)cc1` (stereo not shown) [Example 5] was tested, and the EC50 was under 0.5 µM. `COc1ccc(CCN2C(=S)N(c3ccc(F)cc3)C(=O)C2CC(=O)Nc2ccc(OC)cc2)cc1` (stereo not shown) [Example 6] gave an EC50 of under 0.5 µM. For `CCOc1ccc(NC(=O)CC2C(=O)N(c3ccccc3)C(=S)N2CCc2ccccc2F)cc1` (stereo not shown) [Example 7], the EC50 was under 0.5 µM. For `O=C(CC1C(=O)N(c2ccc(F)cc2)C(=S)N1CCc1ccc(Cl)cc1)Nc1ccccc1` (stereo not shown) [Example 8], the EC50 was under 0.5 µM. Compound `COc1ccc(NC(=O)CC2C(=O)N(c3ccc(F)cc3)C(=S)N2CCc2ccc(Cl)cc2)cc1` (stereo not shown) [Example 9] has an EC50 of under 0.5 µM. `CCCOc1ccc(NC(=O)CC2C(=O)N(c3ccccc3)C(=S)N2CCCN2CCN(Cc3ccccc3)CC2)cc1` (stereo not shown) [Example 10] gave an EC50 of under 5 µM. Compound `O=C(CC1C(=O)N(c2ccccc2)C(=S)N1CCc1ccc(Cl)cc1)Nc1ccccc1` (stereo not shown) [Example 11] has an EC50 of under 5 µM. Compound `COc1ccc(NC(=O)CC2C(=O)N(c3ccccc3)C(=O)N2CCC2=CCCCC2)cc1` (stereo not shown) [Example 12] has an EC50 of under 0.5 µM. `COc1ccc(NC(=O)CC2C(=O)N(c3ccc(F)cc3)C(=S)N2CCCN2CCN(Cc3ccccc3)CC2)cc1` (stereo not shown) [Example 13] showed an EC50 of under 0.5 µM. Work on `COc1ccc(NC(=O)CC2C(=O)N(c3ccc(F)cc3)C(=S)N2CCCN2CCN(c3ccccc3)CC2)cc1` (stereo not shown) [Example 14] yielded an EC50 of under 0.5 µM. `CCOc1ccc(NC(=O)CC2C(=O)N(c3ccccc3)C(=O)N2CCC(C)C)cc1` (stereo not shown) [Example 15] was tested, and the EC50 was under 5 µM. `COc1ccc(NC(=O)CC2C(=O)N(c3ccc(F)cc3)C(=O)N2CCc2cccs2)cc1` (stereo not shown) [Example 16] gave an EC50 of under 5 µM. Work on `COc1ccc2[nH]cc(CCN3C(=S)N(c4ccccc4)C(=O)C3CC(=O)Nc3ccccc3)c2c1` (stereo not shown) [Example 17] yielded an EC50 of under 5 µM. With `CCOc1cccc(NC(=O)CC2C(=O)N(c3ccccc3)C(=S)N2CCc2ccc(F)cc2)c1` (stereo not shown) [Example 18] the EC50 was under 5 µM. `CCOc1ccc(NC(=O)CC2C(=O)N(c3cccc(C(F)(F)F)c3)C(=S)N2CCc2ccccc2F)cc1` (stereo not shown) [Example 19] showed an EC50 of under 5 µM. `O=C(CC1C(=O)N(c2ccc(Cl)cc2)C(=S)N1CCc1ccc(Cl)cc1)Nc1ccc(F)cc1` (stereo not shown) [Example 20] was tested, and the EC50 was under 30 µM. `O=C(CC1C(=O)N(c2ccccc2)C(=S)N1CCc1ccccc1)Nc1ccc(Cl)cc1` (stereo not shown) [Example 22] was tested, and the EC50 was under 5 µM. For `Cc1ccsc1CCN1C(=S)N(c2ccccc2)C(=O)C1CC(=O)Nc1ccc(F)cc1` (stereo not shown) [Example 23], the EC50 was under 5 µM. `O=C(CC1C(=O)N(c2ccccc2)C(=S)N1CCc1ccc(Cl)cc1)Nc1ccc(Cl)cc1` (stereo not shown) [Example 24] was tested, and the EC50 was under 5 µM. `COC(=O)c1ccc(NC(=O)CC2C(=O)N(c3ccccc3)C(=S)N2CCc2ccc(Cl)cc2)cc1` (stereo not shown) [Example 25] gave an EC50 of under 5 µM. Work on `COc1ccc(NC(=O)CC2C(=O)N(c3ccc(C)cc3)C(=S)N2CCc2ccccc2)cc1` (stereo not shown) [Example 26] yielded an EC50 of under 5 µM. `COCCCN1C(=S)N(c2ccc(F)cc2)C(=O)C1CC(=O)Nc1ccc(OC)cc1` (stereo not shown) [Example 27] gave an EC50 of under 30 µM. `CCCOc1ccc(NC(=O)CC2C(=O)N(C3CCCCC3)C(=S)N2Cc2ccc(OC)cc2)cc1` (stereo not shown) [Example 29] showed an EC50 of under 30 µM. `CCCOc1ccc(NC(=O)CC2C(=O)N(c3ccc(F)cc3)C(=S)N2CCCN2CCN(CC)CC2)cc1` (stereo not shown) [Example 31] gave an EC50 of under 30 µM. With `COc1ccc(NC(=O)CC2C(=O)N(Cc3ccccc3)C(=S)N2CCc2ccc(Cl)cc2)cc1` (stereo not shown) [Example 32] the EC50 was under 30 µM.
